In brackets after ≈: the same amount, converted by molar mass.
Conditions: for aqueous solubility: pH 6.8

Row | SMILES | MDR1-MDCK efflux ratio | intrinsic clearance, human liver microsomes [mL/min/kg] | intrinsic clearance, rat liver microsomes [mL/min/kg] | aqueous solubility [µg/mL] | fraction unbound, human plasma | fraction unbound, rat plasma
1 | COc1cccc(CC(=O)N2CCOC(c3cc(Nc4nnc(C)s4)cc(C)n3)C2)c1 (stereo unspecified) | 10.7 | 68.6 | 308 |  |  | 
2 | COc1ccc2c(-c3ccccc3)cc3nnnn3c2c1 | 0.48 |  |  | 0.15 (≈ 0.543 µM) |  | 
3 | Cn1cc(-c2ccc(-c3cncc(Cl)c3N3CCC4(CCNC4=O)CC3)cc2)cn1 | 61.1 | 65.7 | 308 | 3.11 (≈ 7.37 µM) |  | 
4 | CCN1CCc2c(sc(NC(=O)CS(=O)(=O)c3ccccc3)c2-c2nc3ccccc3s2)C1 |  | 71.6 | 435 |  |  | 
5 | Cc1ccccc1C(=O)Nc1nc(C)c(C)s1 | 0.557 | 90 | 280 | 30.4 (≈ 123 µM) |  | 
6 | CCOC(=O)C1(Cc2cc(-c3cccc(F)c3)no2)CCN(Cc2ccccc2O)CC1 |  |  |  | 0.68 (≈ 1.55 µM) |  | 
7 | CC(C)c1cnn2c(NCc3ccccc3)cc(NCCCCCCN)nc12 | 41.3 | 7.76 | 210 | 50 (≈ 131 µM) |  | 
8 | COc1ccc(S(=O)(=O)N2CCC[C@H](C(=O)Nc3cccc4ncccc34)C2)cc1 |  | 22.6 | 611 |  |  | 
9 | CC1CCN(Cc2ccc(NC(=O)c3ccccn3)cc2)CC1 | 0.675 | ≤ 4.74 | 16.2 | 40.8 (≈ 132 µM) |  | 
10 | O=C(O)c1nc(-c2ccccc2)oc1-c1ccccc1 | 0.802 | 6.99 | ≤ 10.7 | 40.8 (≈ 154 µM) |  | 
11 | COc1cc(CC(=O)Nc2ccccc2F)ccc1C |  |  |  | 26 (≈ 95.1 µM) |  | 
12 | CO[C@@H](C(=O)Nc1cc2c(C)cc(=O)oc2cc1C)c1ccccc1 | 1.15 | 12.8 | 256 | 39.8 (≈ 118 µM) |  | 
13 | CN(C)C(C)(C)CNc1ncnc2ccccc12 | 2.86 | ≤ 4.74 | 293 | 39.1 (≈ 160 µM) |  | 
14 | CN1CCN(c2ncncc2-c2nc(-c3ccccc3)no2)CC1 | 0.527 | 28.1 | 484 | 56.4 (≈ 175 µM) |  | 
15 | CCCc1cc(-c2nn3c(C4CCCC4)nnc3s2)n(C)n1 |  | 99.4 | 2230 | 13.5 (≈ 42.5 µM) |  | 
16 | CCC(=O)Nc1cccc(Oc2nc(Nc3ccc(N4CCN(C)CC4)cc3OC)ncc2Cl)c1 | 14 | 15.9 | 238 |  |  | 
17 | Cn1cnnc1-c1cccc(NS(=O)(=O)c2ccc(N3CCCC3=O)cc2)c1 | 3.7 | ≤ 4.74 | 18 | 56.6 (≈ 142 µM) |  | 
18 | CCCS(=O)(=O)N1CCCC(C(=O)N2CCc3ccccc3C2)C1 (stereo unspecified) | 1.87 | 62 | 1010 | 54.8 (≈ 156 µM) |  | 
19 | Cc1cccn(Cc2ccccc2F)c1=O | 0.634 | ≤ 4.74 | 60.7 | 28.2 (≈ 130 µM) |  | 
20 | Cc1cc(C)c(S(=O)(=O)Nc2ccccc2)c(C)c1 |  | 137 | 4160 |  |  | 

Row | SMILES | MDR1-MDCK efflux ratio | intrinsic clearance, human liver microsomes [mL/min/kg] | intrinsic clearance, rat liver microsomes [mL/min/kg] | aqueous solubility [µg/mL] | fraction unbound, human plasma | fraction unbound, rat plasma
21 | CCc1nnc(NC(=O)Cc2cccc(F)c2)s1 | 0.912 | 7.42 | 76.3 | 12.2 (≈ 46 µM) |  | 
22 | CN(Cc1cnc2ccccc2n1)S(=O)(=O)N1CCCC1 | 0.702 | 13.3 | 1600 |  |  | 
23 | Cc1ccsc1C(=O)Nc1nc2ccccc2s1 | 0.136 |  |  | 0.29 (≈ 1.06 µM) |  | 
24 | COCCNc1ncnc2ccsc12 | 0.711 | ≤ 4.74 | 22.9 | 40.8 (≈ 195 µM) |  | 
25 | CCCn1ncc2[nH]c(-c3cc(Cn4cncn4)c(C)cc3C)nc21 | 90.9 | 51.7 | 199 | 33.6 (≈ 100 µM) |  | 
26 | COC(=O)CCCNC(=O)CN1CCC(C(=O)c2ccc(C)cc2C)CC1 | 3.29 | 645 | 1910 |  |  | 
27 | Cc1ccc(CNC(=O)CN2CCC(n3nnc4cc(C(F)(F)F)ccc43)CC2)cc1 |  | 41.4 | 168 | 11.5 (≈ 26.6 µM) |  | 
28 | CCN1CCN(c2ccc(Nc3ncnc4sccc34)cc2)CC1 | 1.2 | ≤ 4.74 | 61.9 |  |  | 
29 | CC(C)CCNC(=O)c1ccc2ccccc2n1 |  | 168 | 640 | 7.28 (≈ 30 µM) |  | 
30 | CCN(c1ccc(C(C)C)cc1)S(=O)(=O)c1ccccc1 | 0.516 |  |  | 0.65 (≈ 2.14 µM) |  | 
31 | Nc1nncc(-c2ccccc2OC(F)F)n1 | 0.709 | ≤ 4.74 | ≤ 10.7 | 38.9 (≈ 163 µM) |  | 
32 | O=C(NCCCn1ccnc1)N1CC2(CCCC2)c2ccccc21 |  | 68.9 | 747 | 63.1 (≈ 194 µM) |  | 
33 | O=C(CC1c2ccccc2CCc2ccccc21)NCCN1CCOCC1 | 10.6 | 131 | 2020 |  |  | 
34 | COC(=O)CC1=NN(c2ccc(OC)cc2)C(=O)/C1=C(/C)NCc1ccc(OC)cc1 | 1.26 | 272 | 503 | 2.28 (≈ 5.38 µM) |  | 
35 | Cc1nc(CNC2CCN(C(=O)C3CC3)CC2)cs1 | 3.43 | ≤ 4.74 | ≤ 10.7 | 42.6 (≈ 152 µM) |  | 
36 | COc1ccc(CCCN2CCN(c3cnn(C)c3)C(=O)C2)cc1F | 0.734 | ≤ 4.74 | 44.1 |  | 0.221 | 0.203
37 | Nc1ccc(CC(=O)Nc2ccccc2F)cc1 | 0.66 | ≤ 4.74 | ≤ 10.7 | 54 (≈ 221 µM) |  | 
38 | Cc1cc(C(=O)N(C)CCCC2CCCC2)cc(C)n1 | 0.782 | 63.9 | 5650 |  |  | 
39 | CC(C)CCN1CCn2c1nc1c2c(=O)n(C)c(=O)n1C |  | 26.3 | 99.7 | 46.6 (≈ 160 µM) |  | 
40 | Cc1ccccc1-c1nc(Cn2ccnc2C(C)C)c(C)o1 | 0.732 | 310 | 2720 | 49 (≈ 166 µM) |  | 

Row | SMILES | MDR1-MDCK efflux ratio | intrinsic clearance, human liver microsomes [mL/min/kg] | intrinsic clearance, rat liver microsomes [mL/min/kg] | aqueous solubility [µg/mL] | fraction unbound, human plasma | fraction unbound, rat plasma
41 | CCc1nc(CN2CCC(=O)Nc3cc(F)ccc32)n[nH]1 | 14.7 | ≤ 4.74 | 16.1 |  |  | 
42 | CCCN(CCc1cccs1)[C@H]1CCc2c(O)cccc2C1 | 0.512 | 98.1 | 3810 |  |  | 
43 | Cn1ccnc1CNc1cc(Br)ccc1-n1cccn1 | 0.841 | 31.6 | 291 | 48.6 (≈ 146 µM) |  | 
44 | Cc1cc2c(C(N)=O)cccc2n1-c1nc2c(c(NCc3ccccc3)n1)COCC2 |  |  |  | 36.4 (≈ 88 µM) |  | 
45 | Cc1nccc(-c2cccc(-n3ccnc3C(C)C)c2)n1 | 1.45 | 35.4 | 500 | 40.4 (≈ 145 µM) |  | 
46 | c1ccc(-n2cc(CNc3ncccn3)cn2)cc1 | 0.497 | 30.8 | 181 | 41.1 (≈ 164 µM) |  | 
47 | O=c1c2ccccc2nnn1CCOc1ccc(F)cc1 | 0.42 | 26.1 | 124 |  |  | 
48 | Cc1c(C(=O)N2CCC(C(=O)Nc3ccc4c(c3)OCO4)CC2)oc2c(F)cccc12 | 0.872 | 58.3 | 545 | 11 (≈ 26 µM) |  | 
49 | Cc1cccc(NC(=O)CN(C)Cc2nc3ccccc3c(=O)[nH]2)c1C | 17.6 | 54 | 571 |  |  | 
50 | COc1cc(F)ccc1-c1ncccc1NC(=O)C(C)C | 3.33 | ≤ 4.74 | 25.7 | 34.6 (≈ 120 µM) |  | 
51 | Cn1cc(Nc2nccc(N3CC4CCC(C3)N4C(=O)[C@@H]3CC3(F)F)n2)cn1 | 39.9 | 7.26 | 32.5 |  | 0.44 | 0.612
52 | O=C(NC1CCCC1)C(=O)c1ccc2c(c1)CCC2 | 0.548 | 163 | 908 | 31.3 (≈ 122 µM) |  | 
53 | CC(=O)Nc1ncc(C(=O)O)s1 |  |  |  |  | 0.66 | 0.715
54 | Cn1cc(C(=O)N2CCC(CC(=O)O)CC2)cn1 |  | ≤ 4.74 | ≤ 10.7 | 57.3 (≈ 228 µM) |  | 
55 | Cc1cc(NC(=O)C2CCN(c3ccncc3Cl)CC2)no1 | 0.457 | 12.7 | 186 | 29 (≈ 90.4 µM) |  | 
56 | O=C1NCN(c2ccccc2)C12CCN(CCCOc1ccc(F)cc1)CC2 |  | 74.3 | 548 | 50.9 (≈ 133 µM) |  | 
57 | Nc1ncnc2c1ncn2[C@@H]1O[C@H](CO)[C@@H](O)[C@@H]1O |  |  |  | 54.7 (≈ 205 µM) |  | 
58 | CC(=O)Nc1ccc2nc(N3CCOCC3)sc2c1 | 0.807 | ≤ 4.74 | 23.1 | 44 (≈ 159 µM) |  | 
59 | Cc1cccc(Cl)c1-n1c(C)n[nH]c1=O |  |  |  | 16.1 (≈ 72.1 µM) |  | 

From the Biogen ADME set (Fang et al. 2023)
